# Laboratory results: ChEMBL document CHEMBL1201862, “PubChem BioAssay data set” (2004)
#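 A five-concentration, 48-hour dose response in 96-well plates underlies each endpoint, interpolated linearly between surrounding concentrations. GI50 is the concentration that inhibits growth by half.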 Activity calls are given as the source filed them. No stated cut-off is given here; in the data, active = GI50 up to about 1.1 µM and inactive = higher.
# Columns and labels:
# Test in all cases: NCI-60 cell line screen, 48 h
# HOP-62 = test system: HOP-62
# IGROV-1 = test system: IGROV-1
# HCC 2998 = test system: HCC 2998
# SK-MEL-28 = test system: SK-MEL-28
# UACC-62 = test system: UACC-62
# NCI-H226 = test system: NCI-H226
# SK-MEL-5 = test system: SK-MEL-5
# HOP-92 = test system: HOP-92
# OVCAR-3 = test system: OVCAR-3
# SF-539 = test system: SF-539
# HCT-116 = test system: HCT-116
# OVCAR-4 = test system: OVCAR-4
# SW-620 = test system: SW-620
# SK-MEL-2 = test system: SK-MEL-2
# SNB-75 = test system: SNB-75
# COLO 205 = test system: COLO 205
# CAKI-1 = test system: CAKI-1
# ACHN = test system: ACHN
# MOLT-4 = test system: MOLT-4
# RPMI-8226 = test system: RPMI-8226
smiles,measurement,setting,value
COC(=O)C1=C(C)N2CCCOC2(C)C(C(=O)OC)C1c1cccc(Cl)c1 (stereo not given),GI50,HOP-62,20.7 µM (inactive)
same,GI50,IGROV-1,25.7 µM (inactive)
same,GI50,HCC 2998,35.3 µM (inactive)
same,GI50,SK-MEL-28,21.7 µM (inactive)
same,GI50,UACC-62,15.2 µM (inactive)
same,GI50,NCI-H226,17.8 µM (inactive)
same,GI50,SK-MEL-5,> 100 µM (inactive)
same,GI50,HOP-92,19.1 µM (inactive)
same,GI50,OVCAR-3,22.2 µM (inactive)
same,GI50,SF-539,27.8 µM (inactive)
same,GI50,HCT-116,25 µM (inactive)
same,GI50,OVCAR-4,56.5 µM (inactive)
same,GI50,SW-620,> 100 µM (inactive)
same,GI50,SK-MEL-2,18.1 µM (inactive)
same,GI50,SNB-75,0.452 µM (active)
same,GI50,COLO 205,17.3 µM (inactive)
same,GI50,CAKI-1,17.5 µM (inactive)
same,GI50,ACHN,28.2 µM (inactive)
same,GI50,MOLT-4,16.7 µM (inactive)
same,GI50,RPMI-8226,14.3 µM (inactive)
